According to US20220356174A1, “PYRIDIN-2-ONE COMPOUNDS USEFUL AS SMARCA2 ANTAGONISTS” (Epizyme, Inc., priority 2018, published 2022):
Where two headings read alike, the source gives them in different places.

What was measured:
[1] = biological target: T1, FL-SMARCA2 (full-length human SMARCA2 isoform 1) (Homo sapiens, UniProt P51531); test: SMARCA2 ATPase activity assay (ADP-Glo, chicken mononucleosome substrate); format: biochemical; conditions: ATP 250 uM
T1 construct: FLAG tag (YKDDDDK) (C); made in house; host or cells: Sf21 insect cells (baculovirus, pFastBacI)
T1 sequence (P51531 with tags, fused parts or gaps): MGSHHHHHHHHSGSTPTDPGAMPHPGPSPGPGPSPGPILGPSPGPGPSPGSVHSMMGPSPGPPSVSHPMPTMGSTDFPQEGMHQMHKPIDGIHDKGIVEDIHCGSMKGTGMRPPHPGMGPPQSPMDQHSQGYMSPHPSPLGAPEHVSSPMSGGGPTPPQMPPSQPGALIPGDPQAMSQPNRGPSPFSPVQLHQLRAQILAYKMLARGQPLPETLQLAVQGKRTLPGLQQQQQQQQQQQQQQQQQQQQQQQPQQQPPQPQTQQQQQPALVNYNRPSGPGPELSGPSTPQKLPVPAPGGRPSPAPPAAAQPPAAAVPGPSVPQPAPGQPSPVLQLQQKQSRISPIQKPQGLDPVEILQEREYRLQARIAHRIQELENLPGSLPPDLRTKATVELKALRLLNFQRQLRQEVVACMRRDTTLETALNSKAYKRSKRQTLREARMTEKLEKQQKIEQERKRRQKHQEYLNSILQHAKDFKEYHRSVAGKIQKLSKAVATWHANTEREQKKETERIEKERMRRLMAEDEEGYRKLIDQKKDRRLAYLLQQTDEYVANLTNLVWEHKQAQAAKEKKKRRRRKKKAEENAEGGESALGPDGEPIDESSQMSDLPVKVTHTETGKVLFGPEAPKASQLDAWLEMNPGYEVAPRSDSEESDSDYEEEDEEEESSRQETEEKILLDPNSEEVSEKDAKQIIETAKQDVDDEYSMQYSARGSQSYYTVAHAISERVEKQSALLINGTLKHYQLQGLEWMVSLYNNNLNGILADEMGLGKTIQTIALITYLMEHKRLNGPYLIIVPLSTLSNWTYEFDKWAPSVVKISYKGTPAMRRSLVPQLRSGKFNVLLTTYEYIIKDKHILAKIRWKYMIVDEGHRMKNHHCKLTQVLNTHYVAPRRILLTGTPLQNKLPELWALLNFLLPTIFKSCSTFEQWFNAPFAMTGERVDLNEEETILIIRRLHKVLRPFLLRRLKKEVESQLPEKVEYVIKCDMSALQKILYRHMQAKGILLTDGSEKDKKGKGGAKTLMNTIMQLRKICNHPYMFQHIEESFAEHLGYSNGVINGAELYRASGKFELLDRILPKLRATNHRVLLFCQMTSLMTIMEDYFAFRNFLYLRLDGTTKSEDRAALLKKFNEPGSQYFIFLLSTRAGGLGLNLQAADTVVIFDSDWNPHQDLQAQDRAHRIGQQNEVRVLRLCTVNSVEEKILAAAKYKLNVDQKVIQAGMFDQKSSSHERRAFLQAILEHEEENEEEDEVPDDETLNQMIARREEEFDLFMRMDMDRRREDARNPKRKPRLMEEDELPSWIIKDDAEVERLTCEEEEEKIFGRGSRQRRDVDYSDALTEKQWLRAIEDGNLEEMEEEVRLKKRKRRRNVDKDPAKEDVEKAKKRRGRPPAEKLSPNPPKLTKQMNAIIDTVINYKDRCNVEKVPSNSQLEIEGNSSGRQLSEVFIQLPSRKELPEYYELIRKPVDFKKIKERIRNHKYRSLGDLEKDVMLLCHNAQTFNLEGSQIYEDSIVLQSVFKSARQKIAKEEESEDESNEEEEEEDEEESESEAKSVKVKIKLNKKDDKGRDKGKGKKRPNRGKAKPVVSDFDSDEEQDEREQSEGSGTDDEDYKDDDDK
Text: Molecular Biology: Full-length human SMARCA2 isoform 1 (P51531) transcript clone was amplified from a cDNA library incorporating an N-terminal HIS tag ([…]) fused directly to Ser2 of SMARCA2 and a C-FLAG tag (YKDDDDK) fused directly to Glu1590 of SMARCA2. The amplified gene was subcloned into pFastBacI (Life Technologies).
Protein Expression: Recombinant baculovirus were generated and protein over-expression was accomplished by infecting exponentially growing Sf21 insect cell culture at 1.24×10^6 cell/ml with an MOI of 0.1. Infections were carried out for 76 hours, harvested by centrifugation, and stored at −80° C. for purification.
Expressed full-length SMARCA2 was purified from cell paste by FLAG affinity chromatography followed by anion exchange chromatography. The protein was dialyzed into a storage buffer containing 25 mM HEPES, 300 mM KCl, 10% Glycerol, pH 7.9, 1 mM TCEP and 0.01% Tween-20. The purity of the protein was measured as 74% using micro-capillary based gel electrophoresis.

FL-SMARCA4 = FL-SMARCA4 (Homo sapiens, UniProt P51532); test: SMARCA4 ATPase activity assay (ADP-Glo, chicken mononucleosome substrate)
Chain of FL-SMARCA4 (P51532 whole entry): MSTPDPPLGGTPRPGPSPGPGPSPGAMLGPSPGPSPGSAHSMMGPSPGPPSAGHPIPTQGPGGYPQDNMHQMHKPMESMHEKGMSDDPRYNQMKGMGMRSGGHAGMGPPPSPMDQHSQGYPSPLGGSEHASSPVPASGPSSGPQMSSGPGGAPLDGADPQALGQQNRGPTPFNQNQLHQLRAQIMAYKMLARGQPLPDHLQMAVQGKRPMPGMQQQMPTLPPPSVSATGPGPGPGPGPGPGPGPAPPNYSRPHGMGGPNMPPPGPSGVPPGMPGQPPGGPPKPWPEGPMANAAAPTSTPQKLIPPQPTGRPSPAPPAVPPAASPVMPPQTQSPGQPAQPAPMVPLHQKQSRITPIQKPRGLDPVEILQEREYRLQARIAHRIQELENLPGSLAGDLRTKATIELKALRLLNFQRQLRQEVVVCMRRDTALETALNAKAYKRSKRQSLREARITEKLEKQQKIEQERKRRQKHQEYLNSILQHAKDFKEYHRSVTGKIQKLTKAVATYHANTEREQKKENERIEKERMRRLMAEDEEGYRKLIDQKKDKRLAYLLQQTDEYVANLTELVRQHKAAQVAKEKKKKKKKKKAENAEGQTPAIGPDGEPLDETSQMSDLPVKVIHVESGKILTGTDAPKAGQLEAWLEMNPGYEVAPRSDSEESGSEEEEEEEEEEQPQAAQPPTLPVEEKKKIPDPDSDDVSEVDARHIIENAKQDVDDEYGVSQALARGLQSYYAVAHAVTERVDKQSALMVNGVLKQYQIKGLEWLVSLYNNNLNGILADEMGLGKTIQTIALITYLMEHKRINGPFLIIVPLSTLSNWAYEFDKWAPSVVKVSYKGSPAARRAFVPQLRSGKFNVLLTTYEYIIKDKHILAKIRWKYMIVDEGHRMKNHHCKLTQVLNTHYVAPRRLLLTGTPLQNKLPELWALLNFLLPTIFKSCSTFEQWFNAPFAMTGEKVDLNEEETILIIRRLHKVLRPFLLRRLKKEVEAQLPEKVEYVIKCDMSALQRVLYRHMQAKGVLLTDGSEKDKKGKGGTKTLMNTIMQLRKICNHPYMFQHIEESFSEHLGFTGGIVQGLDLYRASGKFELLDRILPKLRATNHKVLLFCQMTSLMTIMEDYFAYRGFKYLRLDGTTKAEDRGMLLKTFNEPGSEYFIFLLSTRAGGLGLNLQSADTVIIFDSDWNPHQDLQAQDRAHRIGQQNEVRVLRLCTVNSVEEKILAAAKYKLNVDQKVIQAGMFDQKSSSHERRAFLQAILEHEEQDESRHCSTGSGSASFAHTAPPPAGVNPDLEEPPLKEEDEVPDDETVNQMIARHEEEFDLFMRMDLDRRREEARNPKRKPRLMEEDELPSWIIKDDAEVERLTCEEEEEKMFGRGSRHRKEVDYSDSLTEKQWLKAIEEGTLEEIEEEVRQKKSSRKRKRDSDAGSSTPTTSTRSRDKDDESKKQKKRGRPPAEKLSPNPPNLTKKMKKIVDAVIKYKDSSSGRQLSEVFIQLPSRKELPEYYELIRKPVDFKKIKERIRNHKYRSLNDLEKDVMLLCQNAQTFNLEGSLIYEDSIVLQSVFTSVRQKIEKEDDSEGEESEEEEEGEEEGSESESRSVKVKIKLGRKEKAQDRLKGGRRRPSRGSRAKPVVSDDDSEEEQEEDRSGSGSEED

[2] = Table 3.1, ATPase assay, enzyme 5 nM, chicken mononucleosome 10 nM, 30 min preincubation
[3] = FL-SMARCA4 IC50, Table 3.2, ATPase assay, enzyme 5 nM, ATP 250 uM, chicken mononucleosome 10 nM, 30 min preincubation
[4] = Table 3a.1, SMARCA2 5 nM, mononucleosome 10 nM
[5] = FL-SMARCA4 IC50, Table 3a.2, SMARCA4 5 nM, ATP 250 uM, mononucleosome 10 nM
[6] = Table 3b.1, SMARCA2 5 nM, mononucleosome 10 nM
[7] = FL-SMARCA4 IC50, Table 3b.2, SMARCA4 5 nM, ATP 250 uM, mononucleosome 10 nM
[8] = Table 3c.1, ATPase assay, enzyme 5 nM, chicken mononucleosome 10 nM, 30 min preincubation
[9] = FL-SMARCA4 IC>50, Table 3c.2, ATPase assay, enzyme 5 nM, ATP 250 uM, chicken mononucleosome 10 nM, 30 min preincubation
[10] = Table 3d.1, ATPase assay, enzyme 5 nM, chicken mononucleosome 10 nM, 30 min preincubation, read-out: FL-SMARCA2 IC>50

With `COCCn1cc(NC(=O)c2nc(C)n(-c3ccccc3Cl)n2)ccc1=O` [Compound 11] the IC50 [1, 2] was over 50 µM and the IC50 (FL-SMARCA4; [3]) was over 50 µM.

`CO[C@H]1C[C@@H](C(=O)Nc2cc(Cl)c(=O)n(C)c2)N(C)C1` [Compound 11a] was tested, and the IC50 [1, 4] was over 50 µM and the IC50 (FL-SMARCA4; [5]) was over 50 µM.

In the case of `CCn1cc(NC(=O)C2CCCC2)ccc1=O` [Compound 11b], the IC50 [1, 6] is reported as over 50 µM and the IC50 (FL-SMARCA4; [7]) is reported as over 50 µM.

For `CS(=O)(=O)c1cc(NC(=O)c2cc(F)c(Cl)s2)cn(CC(F)F)c1=O` [Compound 11c], the IC50 [1, 8] was over 50 µM and the IC50 (FL-SMARCA4; [9]) was over 50 µM.

For `Cn1cc(NC(=O)c2cnc(-c3ccco3)s2)cc(Cl)c1=O` [Compound 12], the IC50 [1, 2] was over 50 µM and the IC50 (FL-SMARCA4; [3]) was over 50 µM.

In the case of `CCC(CC)N1CC(C(=O)Nc2cc(Cl)c(=O)n(C)c2)CC1=O` (stereo not shown) [Compound 12a], the IC50 [1, 4] is reported as over 50 µM and the IC50 (FL-SMARCA4; [5]) is reported as over 50 µM.

In the case of `CCn1cc(NC(=O)C2CCCCC2)ccc1=O` [Compound 12b], the IC50 [1, 6] is reported as over 50 µM and the IC50 (FL-SMARCA4; [7]) is reported as over 50 µM.

For `O=C(Nc1cc(CO)c(=O)n(CC(F)F)c1)c1cc(F)c(Cl)s1` [Compound 12c], the IC50 [1, 8] was 34.8 µM and the IC50 (FL-SMARCA4; [9]) was over 50 µM.

With `CCn1cc(NC(=O)c2cccn2C)ccc1=O` [Compound 13] the IC50 [1, 2] was over 50 µM and the IC50 (FL-SMARCA4; [3]) was over 50 µM.

In the case of `CCn1cc(NC(=O)C2CCOCC2)ccc1=O` [Compound 13a], the IC50 [1, 4] is reported as over 50 µM and the IC50 (FL-SMARCA4; [5]) is reported as over 50 µM.

Compound `CCn1cc(NC(=O)[C@@H]2CCC[C@H](Cl)C2)ccc1=O` [Compound 13b] has an IC50 [1, 6] of over 50 µM and an IC50 (FL-SMARCA4; [7]) of over 50 µM.

For `Cn1nccc1-c1cc(NC(=O)c2cc(Cl)c(C(F)(F)F)s2)cn(CC(F)F)c1=O` [Compound 13c], the IC50 [1, 8] was over 50 µM and the IC50 (FL-SMARCA4; [9]) was over 50 µM.

For `CCn1cc(NC(=O)c2c(C)noc2C)ccc1=O` [Compound 14], the IC50 [1, 2] was over 50 µM and the IC50 (FL-SMARCA4; [3]) was over 50 µM.

For `CCn1cc(NC(=O)c2cccnc2)ccc1=O` [Compound 14a], the IC50 [1, 4] was over 50 µM and the IC50 (FL-SMARCA4; [5]) was over 50 µM.

`CCn1cc(NC(=O)[C@@H]2CCC[C@@H](Cl)C2)ccc1=O` [Compound 14b] showed an IC50 [1, 6] of over 50 µM and an IC50 (FL-SMARCA4; [7]) of over 50 µM.

In the case of `Cn1cc(-c2cc(NC(=O)c3cc(Cl)c(C(F)(F)F)s3)cn(CC(F)F)c2=O)cn1` [Compound 14c], the IC50 [1, 8] is reported as over 50 µM and the IC50 (FL-SMARCA4; [9]) is reported as over 50 µM.

In the case of `CCn1cc(NC(=O)c2cc(C(F)(F)F)nn2C)ccc1=O` [Compound 15], the IC50 [1, 2] is reported as over 50 µM and the IC50 (FL-SMARCA4; [3]) is reported as over 50 µM.

`CCn1cc(NC(=O)c2ccc3c(c2)OCO3)ccc1=O` [Compound 15a] was tested, and the IC50 [1, 4] was over 50 µM and the IC50 (FL-SMARCA4; [5]) was over 50 µM.

`CCn1cc(NC(=O)[C@@H]2CC[C@H](Cl)C2)ccc1=O` [Compound 15b] gave an IC50 [1, 6] of over 50 µM and an IC50 (FL-SMARCA4; [7]) of over 50 µM.

`O=C(Nc1cc(F)c(=O)n(CC(F)F)c1)[C@@H]1CCCN1` [Compound 15c] was tested, and the IC50 [1, 8] was over 50 µM and the IC50 (FL-SMARCA4; [9]) was over 50 µM.

For `CCn1cc(NC(=O)c2cc(C)nn2C)ccc1=O` [Compound 16], the IC50 [1, 2] was over 50 µM and the IC50 (FL-SMARCA4; [3]) was over 50 µM.

`CCn1cc(NC(=O)c2cnc(Cl)c(Cl)c2)ccc1=O` [Compound 16a] showed an IC50 [1, 4] of 26.8 µM and an IC50 (FL-SMARCA4; [5]) of over 50 µM.

`CCn1cc(NC(=O)[C@H]2CC[C@@H](Cl)C2)ccc1=O` [Compound 16b] gave an IC50 [1, 6] of over 50 µM and an IC50 (FL-SMARCA4; [7]) of over 50 µM.

For `O=C(Nc1cc(F)c(=O)n(CC(F)F)c1)[C@H]1CCCN1` [Compound 16c], the IC50 [1, 8] was over 50 µM and the IC50 (FL-SMARCA4; [9]) was over 50 µM.

In the case of `CCn1nc(NC(=O)c2cc(Cl)c(Cl)n2C)ccc1=O` [Compound 16d], the IC50 [1, 10] is reported as 16.7 µM and the IC50 (FL-SMARCA4; FL-SMARCA4 IC50) is reported as over 50 µM.

In the case of `CCn1cc(NC(=O)c2cc(Cl)c(Cl)[nH]2)ccc1=O` [Compound 17], the IC50 [1, 2] is reported as 4.06 µM and the IC50 (FL-SMARCA4; [3]) is reported as 26.6 µM.

With `CCn1cc(NC(=O)c2cncc(Cl)c2)ccc1=O` [Compound 17a] the IC50 [1, 4] was over 50 µM and the IC50 (FL-SMARCA4; [5]) was over 50 µM.

`O=C(Nc1cc(F)c(=O)n(CCF)c1)c1ccc(Cl)c(Cl)c1` [Compound 17b] showed an IC50 [1, 6] of 0.645 µM and an IC50 (FL-SMARCA4; [7]) of 4.78 µM.

`CN(C)CCc1cc(NC(=O)c2cc(F)c(Cl)s2)cn(CC(F)F)c1=O` [Compound 17c] gave an IC50 [1, 8] of over 50 µM and an IC50 (FL-SMARCA4; [9]) of over 50 µM.

`CCn1cc(NC(=O)Nc2ccccn2)ccc1=O` [Compound 17d] showed an IC50 [1, 10] of over 50 µM and an IC50 (FL-SMARCA4; FL-SMARCA4 IC50) of over 50 µM.

`CCn1cc(NC(=O)c2ccc(Cl)n2C)ccc1=O` [Compound 18] was tested, and the IC50 [1, 2] was 19.5 µM and the IC50 (FL-SMARCA4; [3]) was over 50 µM.

For `CCn1cc(NC(=O)c2[nH]c3ccccc3c2C)ccc1=O` [Compound 18a], the IC50 [1, 4] was over 50 µM and the IC50 (FL-SMARCA4; [5]) was over 50 µM.
